The values that follow come from patent publication US11364305B2, “Nanoparticle conjugates and uses thereof” (UNIVERSITY OF MIAMI, priority 2015, dated 2022).

[ ]: non-standard residue; d: D form. Abu = CC[C@H](N)C(=O)O; Ahx = NCCCCCC(=O)O

Series [1] has as its system Bone marrow cells from C57Bl/6 mice. Kind of series: Transfection of early hematopoietic progenitor cells from bone marrow (flow cytometry). In kind it is cell-based, mouse. As to the method:
FIG. 24B provides histograms that how the binding of 4PD (open histogram) over the control (filled histogram). The dot blot on the right summarize the binding from ten independent assays.
Bone marrow cells from C57Bl/6 mice were incubated for 10 minutes with 4PD loaded with Alexafluor 555 washed, counterstained with anti-lineage cocktail, anti-CD45, anti-Sca1, anti ckit, anti-CD34, anti-CD16/CD32, anti-CD150 and anti-CD48 antibodies, and analyzed by flow cytometry.
Importantly, the viability of the cells after transfection was higher than 95%.

Another series deals with MDSC and macrophages. Kind of series: In vivo specificity of 4PD in CT26 bearing mice (multicolor flow cytometry of tumor, spleen, liver). Also noted: species or system mouse. The following applies: for Alexa555-shRNA accumulation in cell subsets: with cardiolipin. As to the method: Mice bearing the CT26 colon carcinoma (0.7 cm in diameter) were injected with Alexa555-siRNA loaded onto 4PD (black bar) or, as control, onto G5 PAMAM dendrimer functionalized with a random peptide. Two hours later, mice were sacrificed. Single cell suspensions from the spleen, the tumor and the liver were labeled with antibodies specific for Gr1, CD11b, F4/80, CD11c, CD3, CD4, and CD8 to identify granulocytic MDSC (gMDSC), monocytic MDSC (mMDSC), macrophages, dendritic cells, and helper and cytotoxic T cell. Fluorescence in the Alexa555 channel in each population was evaluated by FACSas a read out of 4PD mediated transfection.
In order to evaluate 4PD specificity in vivo, Balb/c mice bearing the CT26 colon carcinoma were injected intravenously with 20 ug of Alexa555-shRNA loaded into the 4PD platform with cardiolipin. Alexa 555-shRNA loaded dendrimer coupled with control peptide (a mixture of random peptides) were used as control. Cardiolipin was added to the complexes as described above (FIG. 3). Two hours after 4PD/Alexa555-shRNA systemic injection, mice were sacrificed and single cell suspension from the tumor, the spleen, and the liver was analyzed by multicolor flow cytometry (FIG. 10). In particular, cells were stained with CD11b, Gr1, CD11c and F4/80 specific antibodies to identify granulocytic− (g−) MDSCs (CD11bGr1high), monocytic− (m−) MDSCs (CD11b+GR1−), CD11b+Gr-1 negative myeloid cells, F4/80+macrophages, and CD11chigh DC. Additionally, cells were stained with antibodies specific for CD3, CD8, and CD4 to recognize T cell subsets.
For orientation: A flow cytometer gives signals particle by particle.

Another series concerns human MDSCs. Kind of series: Binding of 4PD/Alexa555-shRNA complexes to PBMCs from HNSCC patients by FACS. In kind it is cell-based. The following applies: 30 minutes at 4° C. As to the method: Transfection was evaluated by FACS. In FIG. 6A, the red dot represent the cells transfected with the 4PD nanoparticles (i.e., CD33+IL4Rα+CD11b+CD14+HLADRlow monocytes/MDSC). FIG. 6B depicts the Alexa555 fluorescence in the indicated gates. In FIG. 6C, apparent Kd was calculated by incubating a fixed number of PBMCs with the indicated concentration of Alexa555shRNA/4PD complexes for 10 minutes at 4° C. and by evaluating the MFI in the relevant channel by FACS.
Next, the ability of 4PD to bind to the native IL4Rα receptor expressed on a cell membrane was evaluated. To this aim, the capacity of 4PD to recognize CD11b+myeloid cells isolated from tumor bearing mice was evaluated. Briefly, CD11b+MDSC were magnetically isolated from the spleen of Balb/c mice challenged 2 weeks before with the CT26 colon carcinoma. Purified cells were incubated at 37° C. for 15 minutes with Alexa555-shRNA loaded onto 4PD or dendrimers conjugated with scramble peptide as negative control. […] Cells were harvested and analyzed by FACS (FIG. 5B) or by fluorescence microscopy (FIG. 5C) to determine Alexa-555-shRNA transfection. […] Similarly (FIG. 6B), Alexa555 fluorescence can be found only on CD33+IL4Rα+ MDSCs (black histogram) but not in other subsets as the IL4Rα-CD33+ myeloid cells (purple) or the non-myeloid (CD33-IL4Rα−) cells. […]

A further series concerns CD11b+MDSC. The series is described as follows: Alexa555-shRNA transfection of CD11b+ MDSC from CT26 tumor bearing mice (FACS, fluorescence microscopy). It is filed as cell-based, mouse. Particulars: 15 minutes at 37° C., then 2 hours; FACS and fluorescence microscopy. As to the method:
MDSC isolated from CT26 tumor bearing mice were transfected with: 1) Alexa555-siRNA alone (gray filled line in FIGS. 5A and 5B), 2) Alexa555-siRNA Dendrimer (black line, bottom panel, FIG. 5B) or 3) Alexa555-siRNA IL4Rα targeting dendrimer (black line, top panel, FIG. 5A). 45 minutes later cells were analyzed by immune-fluorescence microscopy (FIG. 5C) and by FACS (FIG. 5B) after gating on the alive (DAPI negative) cells.
Next, the ability of 4PD to bind to the native IL4Rα receptor expressed on a cell membrane was evaluated. To this aim, the capacity of 4PD to recognize CD11b+myeloid cells isolated from tumor bearing mice was evaluated. Briefly, CD11b+MDSC were magnetically isolated from the spleen of Balb/c mice challenged 2 weeks before with the CT26 colon carcinoma. Purified cells were incubated at 37° C. for 15 minutes with Alexa555-shRNA loaded onto 4PD or dendrimers conjugated with scramble peptide as negative control. After the incubation, cells were washed and incubated for an additional 2 hours at 37° C. in CTL media. Cells were harvested and analyzed by FACS (FIG. 5B) or by fluorescence microscopy (FIG. 5C) to determine Alexa-555-shRNA transfection. […] Similarly (FIG. 6B), Alexa555 fluorescence can be found only on CD33+IL4Rα+ MDSCs (black histogram) but not in other subsets as the IL4Rα-CD33+ myeloid cells (purple) or the non-myeloid (CD33-IL4Rα−) cells.

On to “4PD: G5 PAMAM dendrimer conjugated by maleidoamide chemistry to the IL4Rα targeting peptide of SEQ ID NO: 1 (Ac-LQRLFRAFR[Abu]LD[Ahx]C-NH2; also: Cys14 joined by maleimidobenzoyl thioether to G5 PAMAM dendrimer)”, for which the transfection entry in series [1] (HSC, HPC1, HPC2, MPP, CMP, GMP, 10 minutes incubation) is “able to efficiently transfect”; in series [1] (megakariocytes-erythrocyte precursors), “at lower level”. The “viability of the cells after transfection” value in series [1] (bone marrow cells) is given as “higher than 95%”. Besides, the Alexa555-shRNA binding entry in the series with MDSC and macrophages (non-myeloid leukocytes subsets, 2 hours after i.v. injection) is on record as “Only non-specific level of binding was observed”. Further, the “Alexa555-shRNA accumulation in cell subsets” value in the series on MDSC and macrophages (spleen and liver, 2 hours after i.v. injection) is “accumulates mostly in F4/80+ tumor educated macrophages, and CD11b+GR1− myeloid cells”; in the series with MDSC and macrophages (tumor, 2 hours after i.v. injection of 20 ug Alexa555-shRNA), “accumulates mostly in the tumor associated gMDSCs, mMDSC, macrophages and CD11b+Gr1− myeloid cells”. For the same substance, the “cells bound by 4PD among PBMCs” value in the series with human MDSCs is on record as “binds preferentially to CD11b+CD14+CD33+IL4Rα+HLADRdim cells”. In addition, the Alexa-555-shRNA transfection result in the series with CD11b+MDSC is on record as “can promote the internalization of Alexa-555 in the cells”.
